Measurements taken from patent US20240400553A1, “AMINE BASED MATRIPTASE 2 INHIBITORS AND USES THEREOF” (Disc Medicine, Inc., priority 2023, published 2024).

Biological target: T1, Human Recombinant Matriptase 2 (Homo sapiens, UniProt Q8IU80)
T1 construct: made in house
T1 sequence (Q8IU80 1-811): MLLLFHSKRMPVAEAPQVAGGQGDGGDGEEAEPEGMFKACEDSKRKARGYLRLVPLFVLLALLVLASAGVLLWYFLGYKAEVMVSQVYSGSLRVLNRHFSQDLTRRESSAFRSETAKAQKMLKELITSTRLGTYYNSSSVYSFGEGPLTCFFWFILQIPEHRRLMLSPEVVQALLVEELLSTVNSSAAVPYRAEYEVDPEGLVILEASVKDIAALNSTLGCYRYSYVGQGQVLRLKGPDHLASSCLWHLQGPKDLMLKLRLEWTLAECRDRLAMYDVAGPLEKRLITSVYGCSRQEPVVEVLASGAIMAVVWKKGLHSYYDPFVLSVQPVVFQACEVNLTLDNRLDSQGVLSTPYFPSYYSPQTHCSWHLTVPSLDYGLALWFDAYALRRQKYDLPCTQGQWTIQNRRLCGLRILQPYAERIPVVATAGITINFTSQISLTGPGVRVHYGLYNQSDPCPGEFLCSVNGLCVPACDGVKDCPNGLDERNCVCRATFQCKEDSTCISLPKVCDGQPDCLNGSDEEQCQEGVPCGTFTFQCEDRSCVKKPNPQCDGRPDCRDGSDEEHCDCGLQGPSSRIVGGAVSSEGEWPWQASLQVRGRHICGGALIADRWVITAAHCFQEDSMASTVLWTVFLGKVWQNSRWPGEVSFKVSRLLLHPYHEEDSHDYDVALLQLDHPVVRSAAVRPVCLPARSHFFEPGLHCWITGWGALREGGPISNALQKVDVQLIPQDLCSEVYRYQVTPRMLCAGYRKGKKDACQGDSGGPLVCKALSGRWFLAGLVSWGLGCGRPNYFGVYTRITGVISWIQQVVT
Experiment: Matriptase 2 inhibition, fluorescence based assay (Method I)
Format: biochemical
Conditions: Table A; Ki of Matriptase-2; read-out: Mat-2 Ki
Method in brief: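 In-house recombinant enzyme (3.5 nM), preincubated 30 min with compound, then Boc-Gln-Ala-Arg-AMC substrate (62 μM) in 50 mM Tris pH 7.5, 150 mM NaCl, 0.01% gelatin, 1% DMSO, 25 °C. Fluorescence (Ex 360/Em 480 nm) read 60 min after substrate; IC50 from variable-slope sigmoidal fit of % inhibition.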

SMILES | Ki
NCc1ccc2cc(C(=O)OCCn3ccnc3)n(Cc3cc(NS(=O)(=O)Cc4ccccc4)cc4ccccc34)c2n1 [Compound 93, 2-(1H-imidazol-1-yl)-ethyl 6-(aminomethyl)-1-{[3-(phenylmethanesul-fonamido)naphthalen-1-yl]methyl}-1H-pyrrolo-[2,3-b]pyridine-2-car-boxylate] | 100 to 500 nM
NCc1ccc2cc(C(=O)OCCNC(N)=O)n(Cc3cc(NS(=O)(=O)Cc4ccccc4)cc4ccccc34)c2n1 [Compound 94, 2-(carbamoylamino)-ethyl 6-(aminomethyl)-1-{[3-(phenylmethanesul-fonamido)naphthalen-1-yl]methyl}-1H-pyrrolo-[2,3-b]pyridine-2-carbox-ylate] | 100 to 500 nM
COCCOC(=O)c1cc2ccc(CN)nc2n1Cc1cc(NS(=O)(=O)Cc2ccccc2)cc2ccccc12 [Compound 95, 2-methoxyethyl 6-(aminomethyl)-1-{[3-(phenylmethanesulfon-amido)naphthalen-1-yl]-methyl}-1H-pyrrolo[2,3-b]pyridine-2-carboxylate] | 100 to 500 nM
CC(C)(C)n1cnc(COC(=O)c2cc3ccc(CN)nc3n2Cc2cc(NS(=O)(=O)Cc3ccccc3)cc3ccccc23)c1 [Compound 96, (1-tert-butyl-1H-imid-azol-4-yl)methyl 6-(aminomethyl)-1-{[3-(phenylmethanesulfon-amido)naphthalen-1-yl]-methyl}-1H-pyrrolo[2,3-b]pyridine-2-carboxylate] | 100 to 500 nM
NCc1ccc2cc(C(=O)OCCn3cncn3)n(Cc3cc(NS(=O)(=O)Cc4ccccc4)cc4ccccc34)c2n1 [Compound 97] | 100 to 500 nM
NCc1ccc2cc(C(=O)OCc3ccncc3)n(Cc3cc(NS(=O)(=O)Cc4ccccc4)cc4ccccc34)c2n1 [Compound 100, (pyridin-4-yl)methyl 6-(aminomethyl)-1-{[3-(phenylmethanesulfon-amido)naphthalen-1-yl]-methyl}-1H-pyrrolo[2,3-b]pyridine-2-carboxylate] | 100 to 500 nM
NCc1ccc2cc(C(=O)OCc3cn(CC(F)(F)F)cn3)n(Cc3cc(NS(=O)(=O)Cc4ccccc4)cc4ccccc34)c2n1 [Compound 101, [1-(2,2,2-trifluoroethyl)-1H-imidazol-4-yl]methyl 6-(aminomethyl)-1-{[3-(phenylmethanesulfon-amido)naphthalen-1-yl]-methyl}-1H-pyrrolo[2,3-b]pyridine-2-carboxylate] | 100 to 500 nM
NCc1ccc2cc(C(=O)OCCC3CCOCC3)n(Cc3cc(NS(=O)(=O)Cc4ccccc4)cc4ccccc34)c2n1 [Compound 102, 2-(oxan-4-yl)ethyl 6-(aminomethyl)-1-{[3-(phenylmethanesulfon-amido)naphthalen-1-yl]-methyl}-1H-pyrrolo[2,3-b]pyridine-2-carboxylate] | 100 to 500 nM
NCc1ccc2cc(C(=O)OCc3cncn3CC(F)(F)F)n(Cc3cc(NS(=O)(=O)Cc4ccccc4)cc4ccccc34)c2n1 [Compound 103, [1-(2,2,2-trifluoroethyl)-1H-imidazol-5-yl]methyl 6-(aminomethyl)-1-{[3-(phenylmethanesulfon-amido)naphthalen-1-yl]-methyl}-1H-pyrrolo[2,3-b]pyridine-2-carboxylate] | 100 to 500 nM
CC(C)(C)n1cncc1CCOC(=O)c1cc2ccc(CN)nc2n1Cc1cc(NS(=O)(=O)Cc2ccccc2)cc2ccccc12 [Compound 104, 2-(1-tert-butyl-1H-imid-azol-5-yl)ethyl 6-(amino-methyl)-1-{[3-(phenyl-methanesulfonamido)-naphthalen-1-yl]methyl}-1H-pyrrolo[2,3-b]pyr-idine-2-carboxylate] | 100 to 500 nM

Continued, values first:

Ki | SMILES
100 to 500 nM | NCc1ccc2cc(C(=O)OCCO)n(Cc3cc(NS(=O)(=O)Cc4ccccc4)cc4ccccc34)c2n1 [Compound 82, 2-hydroxyethyl 6-(amino-methyl)-1-{[3-(phenyl-methanesulfonamido)-naphthalen-1-yl]methyl}-1H-pyrrolo[2,3-b]pyr-idine-2-carboxylate]
100 to 500 nM | CN1CCC(CCS(=O)(=O)NC(=O)c2cc3ccc(CN)nc3n2Cc2cc(NS(=O)(=O)Cc3ccccc3)cc3ccccc23)CC1 [Compound 83, 6-(aminomethyl)-N-[2-(1-methylpiperidin-4-yl)-ethanesulfonyl]-1-{[3-(phenylmethanesulfon-amido)naphthalen-1-yl]-methyl}-1H-pyrrolo[2,3-b]pyridine-2-carboxamide]
100 to 500 nM | NCc1ccc2cc(C(=O)OCCS(N)(=O)=O)n(Cc3cc(NS(=O)(=O)Cc4ccccc4)cc4ccccc34)c2n1 [Compound 84, 2-sulfamoylethyl 6-(aminomethyl)-1-{[3-(phenylmethanesulfon-amido)naphthalen-1-yl]-methyl}-1H-pyrrolo[2,3-b]pyridine-2-carboxylate]
100 to 500 nM | NCc1ccc2cc(C(=O)OCc3ccccn3)n(Cc3cc(NS(=O)(=O)Cc4ccccc4)cc4ccccc34)c2n1 [Compound 85, (pyridin-2-yl)methyl 6-(aminomethyl)-1-{[3-(phenylmethanesulfon-amido)naphthalen-1-yl]-methyl}-1H-pyrrolo[2,3-b]pyridine-2-carboxylate]
100 to 500 nM | NCc1ccc2cc(C(=O)OCCn3cnnn3)n(Cc3cc(NS(=O)(=O)Cc4ccccc4)cc4ccccc34)c2n1 [Compound 86, 2-(1H-1,2,3,4-tetrazol-1-yl)ethyl 6-(amino-methyl)-1-{[3-(phenyl-methanesulfonamido)-naphthalen-1-yl]methyl}-1H-pyrrolo[2,3-b]pyr-idine-2-carboxylate]
100 to 500 nM | CC(C)n1cnc(COC(=O)c2cc3ccc(CN)nc3n2Cc2cc(NS(=O)(=O)Cc3ccccc3)cc3ccccc23)c1 [Compound 87, [1-(propan-2-yl)-1H-imidazol-4-yl]methyl 6-(aminomethyl)-1-{[3-(phenylmethanesulfon-amido)naphthalen-1-yl]-methyl}-1H-pyrrolo[2,3-b]pyridine-2-carboxylate]
100 to 500 nM | Cc1oc(=O)oc1COC(=O)c1cc2ccc(CN)nc2n1Cc1cc(NS(=O)(=O)Cc2ccccc2)cc2ccccc12 [Compound 88, (5-methyl-2-oxo-2H-1,3-dioxol-4-yl)methyl 6-(aminomethyl)-1-{[3-(phenylmethanesulfon-amido)naphthalen-1-yl]-methyl}-1H-pyrrolo[2,3-b]pyridine-2-carboxylate]
100 to 500 nM | CC(C)n1ccc(COC(=O)c2cc3ccc(CN)nc3n2Cc2cc(NS(=O)(=O)Cc3ccccc3)cc3ccccc23)n1 [Compound 90, [1-(propan-2-yl)-1H-pyrazol-3-yl]methyl 6-(aminomethyl)-1-{[3-(phenylmethanesulfon-amido)naphthalen-1-yl]-methyl}-1H-pyrrolo[2,3-b]pyridine-2-carboxylate]
100 to 500 nM | NCCOC(=O)c1cc2ccc(CN)nc2n1Cc1cc(NS(=O)(=O)Cc2ccccc2)cc2ccccc12 [Compound 91, 2-aminoethyl 6-(amino-methyl)-1-{[3-(phenyl-methanesulfonamido)naphthalen-1-yl]methyl}-1H-pyrrolo[2,3-b]pyr-idine-2-carboxylate]
100 to 500 nM | NCc1ccc2cc(C(=O)OCCn3ccnn3)n(Cc3cc(NS(=O)(=O)Cc4ccccc4)cc4ccccc34)c2n1 [Compound 92, 2-(1H-1,2,3-triazol-1-yl-ethyl 6-(aminomethyl)-1-{[3-(phenylmethane-sulfonamido)naphthalen-1-yl]methyl}-1H-pyrrolo-[2,3-b]pyridine-2-carbox-ylate]
